Data reported in patent publication US4220577A, “Iodopropargyl pyridyl and picolinyl ethers and thioethers as paint fungicides” (Givaudan Corporation, priority 1979, dated 1980).
Values after ≈ are worked out from the molar mass of the structure shown.

Key:
mildew = experiment: Outdoor field test of painted pine panels; details: .5%
Source text: A number of the compounds were field tested in various latex paints. Pine panels (6"×12"×1/2") were given two coats of paint and, after drying, were exposed at an outdoor location subject to high heat and humidity levels. Paints containing the novel componds of this invention were compared with those containing the commercial mecurial mildewcide phenyl mecuric acetate (PMA), a commercial non-mercurial mildewcide 2-n-octyl-4-isothiazolin-3-one and 3-iodo-2-propynyloxybenzene.

Penicillium piscarium = experiment: 5-fold serial dilution test in agar, MIC, F3; type: cell-based; details: 168 h, 28° C., seven days, read-out: Minimum Inhibitory Concentration Range
Method: (§1) Antibacterial and antifungal activity were evaluated by a 5-fold serial dilution test in agar. In this test, compounds were prepared as 6% solutions in dimethylformamide or ethanol. The 6% solution was then 5-fold serially diluted in test tubes to give the desired concentrations when mixed with agar and poured into sterile Petri dishes. Trypticase glucose extract agar was used for the bacterial testing; mildew glucose agar for the fungal testing. The bacterial plates were spot inoculated with 24-hour nutrient broth cultures and incubated at 37° C. for 48 hours. The fungal plates were spot inoculated with spore suspensions and incubated at 28° C. for seven days. At the end of the incubation periods, all plates were examined for growth. The minimum inhibitory concentration (MIC) for each organism is expressed in Table I. In the ranges presented, growth is observed only at the lower concentration.
F3 Penicillium piscarium

Bacillus subtilis = experiment: 5-fold serial dilution test in agar, MIC, B5; type: cell-based; details: 37° C., 48 hours, read-out: Minimum Inhibitory Concentration Range
Method: as §1
B5 Bacillus subtilis 4 3 μg/ml

Staphylococcus aureus = experiment: 5-fold serial dilution test in agar, MIC, B1; type: cell-based; details: 37° C., 48 hours, read-out: Minimum Inhibitory Concentration Range
Method: as §1
B1 Staphylococcus aureus

Pseudomonas aeruginosa = experiment: 5-fold serial dilution test in agar, MIC, B3; type: cell-based; details: 37° C., 48 hours, read-out: Minimum Inhibitory Concentration Range
Method: as §1
B3 Pseudomonas aeruginosa

Aureobasidium pullulans = experiment: 5-fold serial dilution test in agar, MIC, F4; type: cell-based; details: 168 h, 28° C., seven days, read-out: Minimum Inhibitory Concentration Range
Method: as §1
F4 Aureobasidium pullulans

Aspergillus oryzae = experiment: 5-fold serial dilution test in agar, MIC, F2; type: cell-based; details: 168 h, 28° C., seven days, read-out: Minimum Inhibitory Concentration Range
Method: as §1

Proteus vulgaris = experiment: 5-fold serial dilution test in agar, MIC, B4; type: cell-based; details: 37° C., 48 hours, read-out: Minimum Inhibitory Concentration Range
Method: as §1

Aspergillus niger = experiment: 5-fold serial dilution test in agar, MIC, F1; type: cell-based; details: 168 h, 28° C., seven days, read-out: Minimum Inhibitory Concentration Range
Method: as §1

Escherichia coli = experiment: 5-fold serial dilution test in agar, MIC, B2; type: cell-based; details: 37° C., 48 hours, read-out: Minimum Inhibitory Concentration Range
Method: as §1

[1] = test system: Aureobasidium pullulans (strain 1); experiment: Antifungal activity on painted surfaces, strain 1; type: cell-based; design: key to Surface Growth: 0: No growth; 1: Slight growth; 2: Moderate growth; 3: Heavy growth; details: Strain 1, three weeks
Method: (§2) Any antifungal agent which can be used to prevent mildew on painted surfaces must be effective against Aureobasidium pullulans, the organism which is primarily responsible for mildew on painted surfaces. The effectiveness of the novel compounds was tested by incorporating the compound into an exterior latex paint, applying the paint to a surface, and testing the ability of the painted surface to prevent the growth of Aureobasidium pullulans. The tests were run as described below. The novel compounds were incorporated into an exterior vinyl acetate latex paint by mulling the compound into the paint. The compounds were tested in the paints at levels of 0.25% and 0.5%. One coat of this paint was applied to each side of a piece of Whatman #30 filter paper. Two one-inch squares were cut from the filter paper. Each square was centered on the agar surface of separate Petri dishes containing malt agar. One square was inoculated with a suspension of Aureobasidium pullulans (strain 1) which was an in-house strain used for routine antimicrobial testing. The second square was inoculated with a suspension of Aureobasidium pullulans (strain 2) which was grown from a culture obtained from the surface of a mildew infested panel. Squares painted with the same exterior vinyl acetate latex paint, but without the novel compounds of this invention, were run in parallel. The Petri dishes were then incubated at 27° C. and at greater than 90% humidity for a three week period and observed for zones of inhibition and surface growth.

[2] = test system: Aureobasidium pullulans (strain 2); experiment: Antifungal activity on painted surfaces, strain 2; type: cell-based; design: key to Surface Growth: 0: No growth; 1: Slight growth; 2: Moderate growth; 3: Heavy growth; details: Strain 2, three weeks
Method: as §2

[3] = 0.25% in vinyl acetate latex paint
[4] = 0.5% in vinyl acetate latex paint

| SMILES | MIC (Penicillium piscarium) | MIC (Bacillus subtilis) | MIC (Staphylococcus aureus) | MIC (Pseudomonas aeruginosa) | MIC (Aureobasidium pullulans) | MIC (Aspergillus oryzae) | MIC (Proteus vulgaris) | MIC (Aspergillus niger) | MIC (Escherichia coli) | Panel Scoring (mildew; Paint B (Acrylic latex-alkyd modified), month 5) | Panel Scoring (mildew; Paint B (Acrylic latex-alkyd modified), month 6) | Panel Scoring (mildew; Paint A (Vinyl acetate latex), month 4) | Surface Growth [1, 3] | Zone of Inhibition [1, 3] | Surface Growth [1, 4] | Zone of Inhibition [1, 4] | Surface Growth [2, 3] | Zone of Inhibition [2, 3] | Surface Growth [2, 4] | Zone of Inhibition [2, 4] |
| --- | --- | --- | --- | --- | --- | --- | --- | --- | --- | --- | --- | --- | --- | --- | --- | --- | --- | --- | --- | --- |
| IC#CCOc1cccnc1 [Compound 1, 3-(3-iodo-2-propynyloxy)pyridine] |  |  |  |  |  |  |  |  |  | 8 | 8 |  |  |  |  |  |  |  |  |  |
| CCCCCCCCn1sccc1=O [II, 2-n-octyl-4-isothiazolin-3-one, reference compound] |  |  |  |  |  |  |  |  |  |  |  | 8 |  |  |  |  |  |  |  |  |
| IC#CCOc1cccnc1 [drawing 2] | 0.12 to 0.6 µg/mL (≈ 0.463 to 2.32 µM) | 3 to 15 µg/mL (≈ 11.6 to 57.9 µM) | 15 to 76 µg/mL (≈ 57.9 to 293 µM) | > 1920 µg/mL | 0.12 to 0.6 µg/mL (≈ 0.463 to 2.32 µM) | 0.12 to 0.6 µg/mL (≈ 0.463 to 2.32 µM) | 3 to 15 µg/mL (≈ 11.6 to 57.9 µM) | 0.03 to 0.12 µg/mL (≈ 0.116 to 0.463 µM) | 76 to 384 µg/mL (≈ 293 to 1480 µM) |  |  |  |  |  |  |  |  |  |  |  |
| IC#CCOc1cccnc1 [drawing 11] |  |  |  |  |  |  |  |  |  |  |  |  | 0 | 3 (11-15 mm) | 0 | 3 (11-15 mm) |  |  |  |  |
| Cc1ccc(OCC#CI)cn1 [drawing 12] |  |  |  |  |  |  |  |  |  |  |  |  | 0 | 2 (6-10 mm) | 0 | 2 (6-10 mm) | 0 | 1 (1-5 mm) | 0 | 2 (6-10 mm) |
| Clc1ncccc1OCC#CI [drawing 13] |  |  |  |  |  |  |  |  |  |  |  |  | 0 | 2 (6-10 mm) | 0 | 3 (11-15 mm) | 0 | 1 (1-5 mm) | 0 | 2 (6-10 mm) |

Now from value to molecule, other results behind:

| MIC (Penicillium piscarium) | MIC (Bacillus subtilis) | MIC (Staphylococcus aureus) | MIC (Pseudomonas aeruginosa) | MIC (Aureobasidium pullulans) | MIC (Aspergillus oryzae) | MIC (Proteus vulgaris) | MIC (Aspergillus niger) | MIC (Escherichia coli) | SMILES | Panel Scoring (mildew; Paint B (Acrylic latex-alkyd modified), month 5) | Panel Scoring (mildew; Paint B (Acrylic latex-alkyd modified), month 6) | Panel Scoring (mildew; Paint A (Vinyl acetate latex), month 4) | Surface Growth [1, 3] | Zone of Inhibition [1, 3] | Surface Growth [1, 4] | Zone of Inhibition [1, 4] | Surface Growth [2, 3] | Zone of Inhibition [2, 3] | Surface Growth [2, 4] | Zone of Inhibition [2, 4] |
| --- | --- | --- | --- | --- | --- | --- | --- | --- | --- | --- | --- | --- | --- | --- | --- | --- | --- | --- | --- | --- |
| 0.03 to 0.12 µg/mL (≈ 0.11 to 0.439 µM) | > 1920 µg/mL | > 1920 µg/mL | > 1920 µg/mL | < 0.03 µg/mL | < 0.03 µg/mL | > 1920 µg/mL | < 0.03 µg/mL | > 1920 µg/mL | Cc1ccc(OCC#CI)cn1 [drawing 3] |  |  |  |  |  |  |  |  |  |  |  |
| 0.12 to 0.6 µg/mL (≈ 0.409 to 2.04 µM) | 3 to 15 µg/mL (≈ 10.2 to 51.1 µM) | 3 to 15 µg/mL (≈ 10.2 to 51.1 µM) | > 1920 µg/mL | 0.12 to 0.6 µg/mL (≈ 0.409 to 2.04 µM) | 0.03 to 0.12 µg/mL (≈ 0.102 to 0.409 µM) | 3 to 15 µg/mL (≈ 10.2 to 51.1 µM) | < 0.03 µg/mL | 15 to 76 µg/mL (≈ 51.1 to 259 µM) | Clc1ncccc1OCC#CI [drawing 4] |  |  |  |  |  |  |  |  |  |  |  |
| 0.12 to 0.6 µg/mL (≈ 0.39 to 1.95 µM) | 15 to 76 µg/mL (≈ 48.8 to 247 µM) | 384 to 1920 µg/mL (≈ 1250 to 6240 µM) | > 1920 µg/mL | 0.03 to 0.12 µg/mL (≈ 0.0976 to 0.39 µM) | 0.03 to 0.12 µg/mL (≈ 0.0976 to 0.39 µM) | > 1920 µg/mL | < 0.03 µg/mL | > 1920 µg/mL | Cc1ccc(OCC#CI)c(Cl)n1 [drawing 5] |  |  |  |  |  |  |  |  |  |  |  |
| 0.6 to 3 µg/mL (≈ 2.19 to 10.9 µM) | 15 to 76 µg/mL (≈ 54.7 to 277 µM) | 15 to 76 µg/mL (≈ 54.7 to 277 µM) | 76 to 384 µg/mL (≈ 277 to 1400 µM) | 0.6 to 3 µg/mL (≈ 2.19 to 10.9 µM) | 0.12 to 0.6 µg/mL (≈ 0.438 to 2.19 µM) | 3 to 15 µg/mL (≈ 10.9 to 54.7 µM) | 0.12 to 0.6 µg/mL (≈ 0.438 to 2.19 µM) | 15 to 76 µg/mL (≈ 54.7 to 277 µM) | Nc1ncccc1OCC#CI [drawing 6] |  |  |  |  |  |  |  |  |  |  |  |
| 0.12 to 0.6 µg/mL (≈ 0.436 to 2.18 µM) | > 1920 µg/mL | > 1920 µg/mL | > 1920 µg/mL | 0.12 to 0.6 µg/mL (≈ 0.436 to 2.18 µM) | < 0.03 µg/mL | > 1920 µg/mL | 15 to 76 µg/mL (≈ 54.5 to 276 µM) | > 1920 µg/mL | IC#CCSc1cccnc1 [drawing 7] |  |  |  |  |  |  |  |  |  |  |  |
| 0.12 to 0.6 µg/mL (≈ 0.439 to 2.2 µM) | 76 to 384 µg/mL (≈ 278 to 1410 µM) | 76 to 384 µg/mL (≈ 278 to 1410 µM) | > 1920 µg/mL | 0.6 to 3 µg/mL (≈ 2.2 to 11 µM) | 0.12 to 0.6 µg/mL (≈ 0.439 to 2.2 µM) | 15 to 76 µg/mL (≈ 54.9 to 278 µM) | 0.03 to 0.12 µg/mL (≈ 0.11 to 0.439 µM) | 76 to 384 µg/mL (≈ 278 to 1410 µM) | IC#CCOCc1cccnc1 [drawing 8] |  |  |  |  |  |  |  |  |  |  |  |
| 0.03 to 0.12 µg/mL (≈ 0.116 to 0.463 µM) | 3 to 15 µg/mL (≈ 11.6 to 57.9 µM) | 384 to 1920 µg/mL (≈ 1480 to 7410 µM) | > 1920 µg/mL | 0.12 to 0.6 µg/mL (≈ 0.463 to 2.32 µM) | 0.03 to 0.12 µg/mL (≈ 0.116 to 0.463 µM) | 76 to 384 µg/mL (≈ 293 to 1480 µM) | < 0.03 µg/mL | 384 to 1920 µg/mL (≈ 1480 to 7410 µM) | IC#CCOc1ccncc1 [drawing 9] |  |  |  |  |  |  |  |  |  |  |  |
| 0.12 to 0.6 µg/mL (≈ 0.436 to 2.18 µM) | 76 to 384 µg/mL (≈ 276 to 1400 µM) | 384 to 1920 µg/mL (≈ 1400 to 6980 µM) | > 1920 µg/mL | 0.12 to 0.6 µg/mL (≈ 0.436 to 2.18 µM) | 0.12 to 0.6 µg/mL (≈ 0.436 to 2.18 µM) | 384 to 1920 µg/mL (≈ 1400 to 6980 µM) | < 0.03 µg/mL | > 1920 µg/mL | IC#CCSc1ccncc1 [drawing 10] |  |  |  |  |  |  |  |  |  |  |  |
